# Measured values from patent publication US20230158057A1, “COMPOSITIONS AND METHODS FOR THE TREATMENT OF PAIN” (Duke University, priority 2020, published 2023).
# “Also recorded” adds a separate entry of the source.
# Legend:
# naïve mice [1] = experiment: Hot plate test after resiniferatoxin ablation of TRPV1+ nociceptors; format: in vivo, mouse
# naïve mice [2] = experiment: Von Frey testing of mechanical thresholds in naïve mice (WT and knockout); format: in vivo, mouse; conditions: for mechanical sensory thresholds (von Frey): i.t. injection
# Experimental: (§1) Reflexive-based sensory testing in mice: All behavioral testing in mice was performed in a specialized humidity- and light-controlled mouse behavior facility maintained at 21-24° C., with testing conducted between the hours of 8:00-16:00. Mice were habituated to the testing environment for at least 2 days prior to baseline testing. All tests were performed by an experimenter who was blinded to experimental conditions, including genotypes and drug treatment. For multi-day experiments using STING agonists, mice were tested in the same room at approximately the same time each day. To measure mechanical sensitivity, mice were confined to individual chambers with non-transparent borders on an elevated mesh rack, preventing mice from visualizing or interacting with one another during the testing period. Mouse hindpaws were stimulated with a series of von Frey filaments with logarithmically increasing stiffness (0.02-2.56 g, Stoelting), which was applied perpendicularly to the central plantar surface. We determined the 50% paw withdrawal threshold using the up-down method. […] To test cold sensitivity, mice were again placed on an elevated metal mesh floor in isolated chambers, and a ˜20 μl acetone drop was applied to the central plantar surface of the mouse hindpaw using a pipette.
# For the experiments utilizing i.t. 2′3′-cGAMP and 3′3′-cGAMP complexed with Lipofectamine 2000 (ThermoFisher, 11668), 10 μg 2′3′-cGAMP or 3′3′-cGAMP was incubated at room temperature for 30 minutes in sterile PBS with 3 μl Lipofectamine 2000. In this case, the vehicle control was 3 μl Lipofectamine 2000 in PBS, as in a previous study which used this approach. […] For experiments utilizing rabbit anti-IFN-α or -β neutralizing antibodies, a polyclonal rabbit IgG antibody served as the control. Antibodies were utilized in vivo at 300 ng/mouse or in vitro at 300 ng/ml. Paclitaxel was administered via repeated i.p. injections every other day for 4 days at a dose of 2 mg/kg. For the whole mount DRG recordings, young mice (4-6 weeks) were administered a single 6 mg/kg dose one week prior to the experiment. All intrathecal injections were performed under brief anesthesia with 2-2.5% isoflurane. Drugs administered by intrathecal injection were preceded by shaving a small area on the back corresponding to the injection site, followed by spinal puncture using a 30-gauge needle between the L5-L6 levels to deliver a maximum of 5-10 μl into the cerebrospinal fluid. Successful intrathecal injection was always confirmed by a brisk tail-flick upon delivery. For the experiments involving intraplantar (i.pl.) injection, IFN-α was dissolved in sterile saline and administered at the concentrations indicated in the figures in a total volume of 20 μl, administered under 2-2.5% isoflurane anesthesia to minimize animal stress. For these experiments, vehicle (saline) or IFN-α were slowly and carefully expressed into the left dorsal hindpaw of anesthetized mice and allowed to perfuse the tissue for ˜20 seconds prior to removal of the needle. […] Mechanical sensory testing was done anteriorly and care was taken to avoid Von Frey filament stimulation of the injection site.
# [3] = test system: Ifnar1+/+ and Ifnar1−/− mice; format: in vivo, mouse; conditions: i.t. IFN-α
# Experimental: as §1, with “pipette. […]” for “pipette.”
# [4] = Solubility noted at drug preparation; format: physicochemical; conditions: diluted in PBS containing 5% DMSO and 0.0625% Tween-20
# Experimental: For the experiments utilizing i.t. 2′3′-cGAMP and 3′3′-cGAMP complexed with Lipofectamine 2000 (ThermoFisher, 11668), 10 μg 2′3′-cGAMP or 3′3′-cGAMP was incubated at room temperature for 30 minutes in sterile PBS with 3 μl Lipofectamine 2000. In this case, the vehicle control was 3 μl Lipofectamine 2000 in PBS, as in a previous study which used this approach. […] For experiments utilizing rabbit anti-IFN-α or -β neutralizing antibodies, a polyclonal rabbit IgG antibody served as the control. Antibodies were utilized in vivo at 300 ng/mouse or in vitro at 300 ng/ml. Paclitaxel was administered via repeated i.p. injections every other day for 4 days at a dose of 2 mg/kg. For the whole mount DRG recordings, young mice (4-6 weeks) were administered a single 6 mg/kg dose one week prior to the experiment. All intrathecal injections were performed under brief anesthesia with 2-2.5% isoflurane. Drugs administered by intrathecal injection were preceded by shaving a small area on the back corresponding to the injection site, followed by spinal puncture using a 30-gauge needle between the L5-L6 levels to deliver a maximum of 5-10 μl into the cerebrospinal fluid. Successful intrathecal injection was always confirmed by a brisk tail-flick upon delivery. […]
# [5] = test system: mice with intrafemoral Lewis lung carcinoma (LLC); experiment: LLC bone cancer pain model, systemic (i.p.) treatment, behavior tests and body weight; format: in vivo, mouse
# Experimental: Bone cancer pain model. The murine cell lines LLC1, LL/2-Luc2 or E0771 were lightly digested using 0.05% trypsin, followed by centrifugation to remove poorly digested cell clusters. Cells were then resuspended in PBS at a concentration of 1×10^8 cells/ml. The inoculation was performed as previously described (Wang, K. et al. “PD-1 blockade inhibits osteoclast formation and murine bone cancer pain.” The Journal of clinical investigation, (2020); Wang, Z. et al. “Anti-PD-1 treatment impairs opioid antinociception in rodents and nonhuman primates.” Sci Transl Med 12 (2020)). Briefly, mice were anesthetized with 4% isoflurane and the left leg was shaved and the skin disinfected with 10% povidone-iodine and 75% ethanol. A superficial incision (0.5-1 cm) was made near the knee joint, exposing the patellar ligament. […] The syringe contents were slowly injected into the femoral cavity over a 2-minute interval. To prevent further leakage of tumor cells outside of the bone cavity, the outer injection site was sealed with silicone adhesive (Kwik-Sil, World Precision Instruments, US). Animals with surgery related movement dysfunction or with outside bone tumor injection were excluded from the study. Drug treatment. […] All other reagents were dissolved in sterile saline or PBS. For experiments utilizing rabbit anti-IFN-α or -β neutralizing antibodies, a polyclonal rabbit IgG antibody served as the control. […] Behavior tests. All the behavioral tests were conducted in a blinded manner and performed during between the hours of 9:00-16:00. Animals were habituated in a light and humidity controlled testing environment for at least 2 days prior to baseline testing. For Von Frey testing, mice were confined to individual 5×5 cm boxes placed on an elevated wire grid. A blinded experimenter stimulated their hindpaws using a series of von Frey filaments with logarithmically increasing stiffness (0.02-2.56 g, Stoelting). Each filament was applied perpendicularly to the central plantar surface. The 50% paw withdrawal threshold was determined using Dixon's up-down method.
# naïve mice [6] = experiment: Conditioned place preference (CPP) assay in naïve mice; conditions: i.t., morphine 2 nmol, DMXAA or ADU-S100 35 nmol
# Experimental: (§2) All mice underwent 3 d of preconditioning habituation in a temperature- and humidity-controlled room under low-light conditions between 08:00-16:00 in a two compartment CPP chamber (Med Associates Inc.). The two compartments differed by both visual and tactile cues. On the 4th day, animal behavior was video-recorded using a webcam connected to a laptop computer, and animal movement was automatically tracked for 15 minutes using the ANY-Maze software (Stoelting). […] On the conditioning day(s) (day 5 for single trial; day 5-7 for repeated trials), two pairing sessions were performed, with vehicle pairing in the AM session and drug treatment (e.g., vehicle or drug) in the PM session, separated by 4 h. In the AM session, mice always received vehicle (10 μl saline, delivered via i.t. injection under isoflurane anesthesia) and were immediately placed in their preferred CPP chamber for 2 h. […] 24 h after the completion of the pairing experiments, mice were placed in the CPP test box with access to both chambers and behavior was recorded for 15 minutes and analyzed using the ANY-Maze software for chamber preference. CPP score was calculated as the inverse of the time spent in the preferred chamber according to: [post-preference (sec)—pre-preference (sec)]. Vehicle served as a negative control for these experiments, while morphine (three trials/naïve mice) or clonidine (single trial/ongoing pain) served as positive controls.
# naïve mice [7] = experiment: Naloxone reversal of antinociception; format: in vivo, mouse; conditions: naloxone 10 mg/kg i.p.; morphine 2 nmol i.t., DMXAA or ADU-S100 35 nmol i.t.
# Experimental: Following naloxone delivery, mice were tested within 15 minutes. For the experiments testing whether mice developed tolerance to the effects of STING agonists, vehicle or DMXAA (35 nmol) were administered via i.t. injection. Naïve mice received five single injections at D0, D3, D6, D9, and D12, with testing each day 4 h after injection. SNI mice received injections on two consecutive days beginning on D7 (D7 and D8) and every 48 h afterwards following the conclusion of sensory testing (D10, D12, D14, D16, and D18). Spinal cords (L4-L5) were collected for analysis of glial cell activation at D21 following SNI.
# [8] = test system: rhesus macaques (Macaca mulatta); conditions: comparison value; cited from earlier work
# mice with CIPN or BCP = experiment: Conditioned place preference (CPP) assay in chronic pain (CIPN and BCP) models; format: in vivo, mouse; conditions: mice with neuropathic pain (CIPN), i.t. 35 nmol
# Experimental: as §2
# tumor-bearing femora = experiment: Bone fractures of tumor-bearing femora on d17 after LLC inoculation; format: in vivo, mouse; conditions: vehicle 87.5%
# Experimental: Development and progression of cancer-induced osteolytic bone destruction frequently leads to bone fracture, which is an important component of SREs in patients with bone metastasis and is associated with decreased overall survival. On d17 after LLC inoculation, mice were euthanized and the tumor bearing femora were collected and the distal tumor-bearing femur where bone destruction occurs was analyzed.
molecule,measurement,setting,value
C=C(C)[C@]12C[C@@H](C)[C@@]34O[C@](Cc5ccccc5)(O[C@@H]1[C@@H]3C=C(COC(=O)Cc1ccc(O)c(OC)c1)C[C@]1(O)C(=O)C(C)=C[C@@H]41)O2 [RTX],heat sensitivity in the hot plate test,naïve mice [1],heat insensitivity
IFN-α,antinociception in WT vs Ifnar1-gKO/cKO mice,naïve mice [2]; i.t.,induced transient antinociception in WT mice which was abolished in Ifnar1-gKO/cKO mice
same,mechanical hypersensitivity of STINGgt/gt mice,naïve mice [2]; i.t.,could transiently rescue mechanical hypersensitivity
same,paw withdrawal thresholds after i.t. recombinant interferon,"naïve mice [2]; naïve mice, i.t.",increased paw withdrawal thresholds
same,paw withdrawal thresholds after i.t. recombinant interferon,"naïve mice [2]; naïve mice, i.t., listed as IFN-a","induced transient, dose-dependent antinociception"
same,mechanical hypersensitivity induced by intraplantar IFN-α,[3],could block the mechanical hypersensitivity induced by intraplantar IFN-α
"Nc1nc2c(ncn2[C@@H]2O[C@@H]3COP(=O)(O)O[C@H]4[C@@H](O)[C@H](n5cnc6c(N)ncnc65)O[C@@H]4COP(=O)(O)O[C@@H]2[C@@H]3O)c(=O)[nH]1 [2′3′-cGAMP, 2′3′ cyclic guanosine monophosphate—adenosine monophosphate]",mechanical sensory thresholds (von Frey),naïve mice [2]; naïve mice,induced dose-dependent antinociception; also recorded: elevated mechanical thresholds
CCc1ccc(NC(=O)Nc2c[nH]c3ccccc23)cc1 [H-151],mechanical sensitivity after i.t. inhibitor or neutralizing antibody,"naïve mice [2]; naïve mice, i.t.",transient dose-dependent hypersensitivity
same,solubility,[4],poor solubility
Nc1nc2c(ncn2[C@@H]2O[C@@H]3COP(=O)(O)O[C@H]4[C@@H](O)[C@H](n5cnc6c(N)ncnc65)O[C@@H]4COP(=O)(O)O[C@H]3[C@H]2O)c(=O)[nH]1 [3′3′-cGAMP],mechanical sensory thresholds (von Frey),naïve mice [2]; naïve mice,induced dose-dependent antinociception; also recorded: elevated mechanical thresholds
same,acute effect on bone cancer pain,"[5]; d11, 4 h after single i.p. injection",could attenuate cold allodynia or/and mechanical allodynia
CN1CC[C@]23c4c5ccc(O)c4O[C@H]2[C@@H](O)C=C[C@H]3[C@H]1C5 [morphine],"conditioned place preference, repeated pairing",naïve mice [6],induces CPP
same,effect of naloxone on the antinociception of the substance,naïve mice [7],reversed
same,intrathecal dose producing analgesia in NHPs,[8],100 nmol
"IFN-β: recombinant mouse IFN-β produced in mammalian cells (PBL Assay Science, 12410-1)",antinociception in WT vs Ifnar1-gKO/cKO mice,naïve mice [2]; i.t.,induced transient antinociception in WT mice which was abolished in Ifnar1-gKO/cKO mice
same,mechanical hypersensitivity of STINGgt/gt mice,naïve mice [2]; i.t.,could transiently rescue mechanical hypersensitivity
same,paw withdrawal thresholds after i.t. recombinant interferon,"naïve mice [2]; naïve mice, i.t.","induced transient, dose-dependent antinociception; also recorded: increased paw withdrawal thresholds"
Cn1cc(Nc2nccc(N3C[C@H]4CC[C@@H](C3)N4C(=O)[C@@H]3CC3(F)F)n2)cn1 [PF-06700841],mechanical sensitivity after i.t. inhibitor or neutralizing antibody,"naïve mice [2]; naïve mice, i.t.","induced transient, dose-dependent mechanical allodynia"
same,effect of pretreatment on IFN-β-induced antinociception,"naïve mice [2]; naïve mice, i.t., 1 μg",abolished IFN-β-induced antinociception
Clc1cccc(Cl)c1N=C1NCCN1 [clonidine],"conditioned place preference, single pairing",mice with CIPN or BCP,robust CPP
poly(I:C),effect on mechanical thresholds in knockout mice,"naïve mice [2]; i.t. 1 μg, knockout genotypes",abolished in Ifnar1fx/fx; Nav1.8-Cre and RIG-I−/− mice
same,mechanical thresholds after i.t. dsDNA or dsRNA analog,"naïve mice [2]; i.t. 1 μg, responsive genotypes","elevated mechanical thresholds similarly in Ifnar1fx/fx (WT), STINGgt/gt, and cGAS−/− mice"
"O=P(O)(O)C(O)(Cn1ccnc1)P(=O)(O)O [ZA, Zoledronic acid]",body weight,"[5]; LLC model, twice i.p.",no effect on overall body weight
same,mice with distal bone fractures,tumor-bearing femora,25%
O=C(Nc1ccc(I)cc1)c1ccc([N+](=O)[O-])o1 [C-176],mechanical sensitivity after i.t. inhibitor or neutralizing antibody,"naïve mice [2]; naïve mice, i.t.",transient dose-dependent hypersensitivity
same,solubility,[4],poor solubility
